Laboratory results taken from ChEMBL document CHEMBL2375290, “Nonclassical antifolates, part 3: synthesis, biological evaluation and molecular modeling study of some new 2-heteroarylthio-quinazolin-4-ones” (Eur J Med Chem, 2013).

Experiments:
[1] = tested on: T47D; test: Cytotoxicity against human T47D cells at 10 uM after 48 hrs by coulter counter analysis; assay type: functional; details: read-out: GI
[2] = tested on: Hs-578T; test: Cytotoxicity against human Hs578T cells at 10 uM after 48 hrs by coulter counter analysis; assay type: functional; details: read-out: GI
[3] = tested on: MCF7; test: Cytotoxicity against human MCF7 cells at 10 uM after 48 hrs by coulter counter analysis; assay type: functional; details: MCF7, 48 h, read-out: GI
[4] = tested on: MDA-MB-231; test: Cytotoxicity against human MDA-MB-231 cells at 10 uM after 48 hrs by coulter counter analysis; assay type: functional; details: MDA-MB-231, 48 h, read-out: GI
[5] = tested on: PC-3; test: Cytotoxicity against human PC3 cells at 10 uM after 48 hrs by coulter counter analysis; assay type: functional; details: PC-3, 48 h, read-out: GI
[6] = tested on: UO-31; test: Cytotoxicity against human UO31 cells at 10 uM after 48 hrs by coulter counter analysis; assay type: functional; details: UO-31, 48 h, read-out: GI
[7] = tested on: RXF 393; test: Cytotoxicity against human RXF393 cells at 10 uM after 48 hrs by coulter counter analysis; assay type: functional; details: RXF 393, 48 h, read-out: GI
[8] = tested on: SN12C; test: Cytotoxicity against human SN12C cells at 10 uM after 48 hrs by coulter counter analysis; assay type: functional; details: read-out: GI
[9] = tested on: A498; test: Cytotoxicity against human A498 cells at 10 uM after 48 hrs by coulter counter analysis; assay type: functional; details: A498, 48 h, read-out: GI
[10] = tested on: CAKI-1; test: Cytotoxicity against human Caki1 cells at 10 uM after 48 hrs by coulter counter analysis; assay type: functional; details: CAKI-1, 48 h, read-out: GI
[11] = Cytotoxicity against human NCI-ADR-RES cells at 10 uM after 48 hrs by coulter counter analysis; assay type: functional; details: read-out: GI
[12] = tested on: OVCAR-4; test: Cytotoxicity against human OVCAR4 cells at 10 uM after 48 hrs by coulter counter analysis; assay type: functional; details: OVCAR-4, 48 h, read-out: GI
[13] = tested on: UACC-62; test: Cytotoxicity against human UACC62 cells at 10 uM after 48 hrs by coulter counter analysis; assay type: functional; details: UACC-62, 48 h, read-out: GI
[14] = tested on: IGROV-1; test: Cytotoxicity against human IGROV1 cells at 10 uM after 48 hrs by coulter counter analysis; assay type: functional; details: IGROV-1, 48 h, read-out: GI
[15] = tested on: SK-MEL-5; test: Cytotoxicity against human SK-MEL-5 cells at 10 uM after 48 hrs by coulter counter analysis; assay type: functional; details: SK-MEL-5, 48 h, read-out: GI
[16] = tested on: Malme-3M; test: Cytotoxicity against human MALME-3M cells at 10 uM after 48 hrs by coulter counter analysis; assay type: functional; details: read-out: GI
[17] = tested on: MDA-MB-435; test: Cytotoxicity against human MDA-MB-435 cells at 10 uM after 48 hrs by coulter counter analysis; assay type: functional; details: MDA-MB-435, 48 h, read-out: GI
[18] = tested on: SNB-75; test: Cytotoxicity against human SNB75 cells at 10 uM after 48 hrs by coulter counter analysis; assay type: functional; details: SNB-75, 48 h, read-out: GI
[19] = tested on: LOX IMVI; test: Cytotoxicity against human LOXIMVI cells at 10 uM after 48 hrs by coulter counter analysis; assay type: functional; details: read-out: GI
[20] = tested on: SNB-19; test: Cytotoxicity against human SNB19 cells at 10 uM after 48 hrs by coulter counter analysis; assay type: functional; details: SNB-19, 48 h, read-out: GI
[21] = tested on: NCI-H522; test: Cytotoxicity against human NCI-H522 cells at 10 uM after 48 hrs by coulter counter analysis; assay type: functional; details: NCI-H522, 48 h, read-out: GI
[22] = tested on: SF-295; test: Cytotoxicity against human SF295 cells at 10 uM after 48 hrs by coulter counter analysis; assay type: functional; details: SF-295, 48 h, read-out: GI
[23] = tested on: NCI-H23; test: Cytotoxicity against human NCI-H23 cells at 10 uM after 48 hrs by coulter counter analysis; assay type: functional; details: NCI-H23, 48 h, read-out: GI
[24] = Cytotoxicity against human EKVX cells at 10 uM after 48 hrs by coulter counter analysis; assay type: functional; details: read-out: GI
[25] = tested on: NCI-H226; test: Cytotoxicity against human NCI-H226 cells at 10 uM after 48 hrs by coulter counter analysis; assay type: functional; details: NCI-H226, 48 h, read-out: GI
[26] = tested on: A549; test: Cytotoxicity against human A549/ATCC cells at 10 uM after 48 hrs by coulter counter analysis; assay type: functional; details: A549, 48 h, read-out: GI
[27] = tested on: RPMI-8226; test: Cytotoxicity against human RPMI8226 cells at 10 uM after 48 hrs by coulter counter analysis; assay type: functional; details: RPMI-8226, 48 h, read-out: GI
[28] = tested on: SR; test: Cytotoxicity against human SR cells at 10 uM after 48 hrs by coulter counter analysis; assay type: functional; details: read-out: GI
[29] = tested on: MOLT-4; test: Cytotoxicity against human MOLT4 cells at 10 uM after 48 hrs by coulter counter analysis; assay type: functional; details: MOLT-4, 48 h, read-out: GI
[30] = tested on: CCRF-CEM; test: Cytotoxicity against human CCRF-CEM cells at 10 uM after 48 hrs by coulter counter analysis; assay type: functional; details: read-out: GI
[31] = tested on: HL-60(TB); test: Cytotoxicity against human HL-60(TB) cells at 10 uM after 48 hrs by coulter counter analysis; assay type: functional; details: HL-60, 48 h, read-out: GI
[32] = tested on: Pseudomonas aeruginosa; test: Antimicrobial activity against Pseudomonas aeruginosa at 200 ug after 24 hrs by agar disc diffusion method; assay type: functional; details: read-out: DIZ
[33] = tested on: Escherichia coli; test: Antimicrobial activity against Escherichia coli at 200 ug after 24 hrs by agar disc diffusion method; assay type: functional; details: read-out: DIZ
[34] = tested on: Micrococcus luteus; test: Antimicrobial activity against Micrococcus luteus at 200 ug after 24 hrs by agar disc diffusion method; assay type: functional; details: read-out: DIZ
[35] = tested on: Bacillus subtilis; test: Antimicrobial activity against Bacillus subtilis at 200 ug after 24 hrs by agar disc diffusion method; assay type: functional; details: read-out: DIZ
[36] = target: T1, Dihydrofolate reductase (Bos taurus, UniProt P00376); test: Inhibition of bovine DHFR after 2 mins by spectrophotometry
T1 sequence (P00376 whole entry): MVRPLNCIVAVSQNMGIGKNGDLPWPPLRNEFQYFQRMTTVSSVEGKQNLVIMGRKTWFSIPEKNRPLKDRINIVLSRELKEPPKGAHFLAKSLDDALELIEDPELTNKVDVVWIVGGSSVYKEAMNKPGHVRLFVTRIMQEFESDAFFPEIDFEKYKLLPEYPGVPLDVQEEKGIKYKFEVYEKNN

[37] = tested on: Staphylococcus aureus; test: Antimicrobial activity against Staphylococcus aureus at 200 ug after 24 hrs by agar disc diffusion method; assay type: functional; details: read-out: DIZ

SMILES	inhibition of growth at 10 µM [1]	inhibition of growth at 10 µM [2]	inhibition of growth at 10 µM [3]	inhibition of growth at 10 µM [4]	inhibition of growth at 10 µM [5]	inhibition of growth at 10 µM [6]	inhibition of growth at 10 µM [7]	inhibition of growth at 10 µM [8]	inhibition of growth at 10 µM [9]	inhibition of growth at 10 µM [10]	inhibition of growth at 10 µM [11]	inhibition of growth at 10 µM [12]	inhibition of growth at 10 µM [13]	inhibition of growth at 10 µM [14]	inhibition of growth at 10 µM [15]	inhibition of growth at 10 µM [16]	inhibition of growth at 10 µM [17]	inhibition of growth at 10 µM [18]	inhibition of growth at 10 µM [19]	inhibition of growth at 10 µM [20]	further results
O=C(O)c1cccnc1Sc1nc2ccc(Cl)cc2c(=O)n1Cc1ccccc1	14.1%	< 10%	< 10%	24.7%	25.2%	20.3%	< 10%	< 10%	< 10%	30.3%	< 10%	20.6%	16.7%	14.7%	< 10%	< 10%	< 10%	18.4%	13.6%	< 10%	inhibition of growth at 10 µM [21]: 13.1%; inhibition of growth at 10 µM [22]: 15.7%; inhibition of growth at 10 µM [23]: < 10%; inhibition of growth at 10 µM [24]: 25.4%; inhibition of growth at 10 µM [25]: 18.4%; inhibition of growth at 10 µM [26]: < 10%; inhibition of growth at 10 µM [27]: 16.3%; inhibition of growth at 10 µM [28]: 32.8%; inhibition of growth at 10 µM [29]: 16.7%; inhibition of growth at 10 µM [30]: 17.8%; inhibition of growth at 10 µM [31]: < 10%; zone of inhibition at 200 µg/disc [32]: 8 mm; zone of inhibition at 200 µg/disc [33]: 8 mm; zone of inhibition at 200 µg/disc [34]: 8 mm; zone of inhibition at 200 µg/disc [35]: 18 mm; IC50 [36]: 10 µM; zone of inhibition at 200 µg/disc [37]: 14 mm
Cc1ccc2nc(Sc3ncccc3C(=O)O)n(Cc3ccccc3)c(=O)c2c1	< 10%	12.5%	16.6%	30.5%	32.8%	20.6%	21.5%	11.2%	11.4%	41.2%	12.7%	16.2%	30.4%	16.3%	14.4%	< 10%	21.8%	30%	13.8%	14.2%	inhibition of growth at 10 µM [21]: 24.4%; inhibition of growth at 10 µM [22]: 14.2%; inhibition of growth at 10 µM [23]: < 10%; inhibition of growth at 10 µM [24]: 26.6%; inhibition of growth at 10 µM [25]: 21.2%; inhibition of growth at 10 µM [26]: < 10%; inhibition of growth at 10 µM [27]: 25.8%; inhibition of growth at 10 µM [28]: 14.4%; inhibition of growth at 10 µM [29]: 15.3%; inhibition of growth at 10 µM [30]: 16.5%; inhibition of growth at 10 µM [31]: < 10%; zone of inhibition at 200 µg/disc [32]: 8 mm; zone of inhibition at 200 µg/disc [33]: 8 mm; zone of inhibition at 200 µg/disc [34]: 12 mm; zone of inhibition at 200 µg/disc [35]: 16 mm; IC50 [36]: 10 µM; zone of inhibition at 200 µg/disc [37]: 15 mm
O=C(O)c1cccnc1Sc1nc2ccc(Cl)cc2c(=O)n1-c1ccccc1	15%	< 10%	< 10%	10.4%	< 10%	20.5%	< 10%	< 10%	< 10%	< 10%	< 10%	< 10%	< 10%	< 10%	< 10%	< 10%	< 10%	< 10%	< 10%	< 10%	inhibition of growth at 10 µM [21]: < 10%; inhibition of growth at 10 µM [22]: < 10%; inhibition of growth at 10 µM [23]: < 10%; inhibition of growth at 10 µM [24]: < 10%; inhibition of growth at 10 µM [25]: 15.1%; inhibition of growth at 10 µM [26]: < 10%; inhibition of growth at 10 µM [27]: < 10%; inhibition of growth at 10 µM [28]: < 10%; inhibition of growth at 10 µM [29]: < 10%; inhibition of growth at 10 µM [30]: < 10%; inhibition of growth at 10 µM [31]: < 10%; zone of inhibition at 200 µg/disc [32]: 8 mm; zone of inhibition at 200 µg/disc [33]: 8 mm; zone of inhibition at 200 µg/disc [34]: 8 mm; zone of inhibition at 200 µg/disc [35]: 16 mm; IC50 [36]: 8 µM; zone of inhibition at 200 µg/disc [37]: 15 mm
Cc1ccc2nc(Sc3cnc(N)s3)n(-c3ccccc3)c(=O)c2c1	< 10%	< 10%	< 10%	18.1%	10.1%	20.7%	< 10%	< 10%	< 10%	20.9%	< 10%	< 10%	< 10%	14.3%	< 10%	< 10%	< 10%	< 10%	< 10%	< 10%	inhibition of growth at 10 µM [21]: 13.8%; inhibition of growth at 10 µM [22]: < 10%; inhibition of growth at 10 µM [23]: < 10%; inhibition of growth at 10 µM [24]: < 10%; inhibition of growth at 10 µM [25]: 12.4%; inhibition of growth at 10 µM [26]: < 10%; inhibition of growth at 10 µM [27]: < 10%; inhibition of growth at 10 µM [28]: 37.8%; inhibition of growth at 10 µM [29]: < 10%; inhibition of growth at 10 µM [30]: < 10%; inhibition of growth at 10 µM [31]: < 10%; zone of inhibition at 200 µg/disc [32]: 8 mm; zone of inhibition at 200 µg/disc [33]: 8 mm; zone of inhibition at 200 µg/disc [34]: 8 mm; zone of inhibition at 200 µg/disc [35]: 8 mm; IC50 [36]: 0.8 µM; zone of inhibition at 200 µg/disc [37]: 8 mm
